“Also recorded” adds a separate entry of the source. Like-named read-outs stand apart in the source and are kept apart here.
Tests used:
[1] = tested on: S. aureus (MSSA, SH1000) biofilms; assay: Minimum biofilm eradication concentration (MBEC), regrowth assay; format: cell-based, Staphylococcus aureus; conditions: Table 5; SH1000
Text: (§1) A regrowth assay was used to establish the MBEC of a compound to evaluate the antibiofilm activity. See also H. Ceri, M. Olson, D. Morck, D. Storey, R. Read, A. Buret, B. Olson, Methods Enzymol. 2001, 337, 377.
(§2) Encouraged by the potency of the QACs against planktonic bacterial cells, the inventors then evaluated the efficacy of compound (12,2,12) against Staphylococcus aureus and Enterococcus faecalis biofilms. […] To both accurately evaluate the antibiofilm activity, a regrowth assay was utilized to establish the minimum biofilm eradication concentration (MBEC) of each compound.
(§3) Different biological assays were performed. For all biological assays, laboratory strains of methicillin-susceptible Staphylococcus aureus MSSA (SH1000), Enterococcus faecalis (OG1RF), Escherichia coli (MC4100), Pseudomonas aeruginosa (PAO1), community-acquired methicillin-resistant Staphylococcus aureus CA-MRSA (USA300-0114), and hospital-acquired methicillin-resistant Staphylococcus aureus HA-MRSA (ATCC 33591) were grown at 37° C. overnight from freezer stocks in 10 mL of the media indicated for each assay. All cultures, with the exception of E. faecalis, were grown with shaking at 250 rpm.
(§4) Minimum biofilm eradication concentration (MBEC) was also measured. To each well of a flat-bottomed 96-well plate (Corning 3370), 8 μL of overnight bacterial culture was brought to a volume of 200 μL with fresh media (BHI for S. aureus and MRSA, Todd Hewitt (TH) for E. faecalis). Plates were incubated statically for 24 hours at 37° C. to establish biofilms. After 24 hours, the wells were carefully emptied by inverting the plate and gently shaking. A pre-mixed solution of media and aqueous compound stock solution was added to each well and plates were incubated at 37° C. 16 hours after pre-established biofilms were treated with compound, the media from each well was removed, biofilms were washed three times with 200 μL PBS to remove planktonic cells, and biofilms were incubated overnight at 37° C. in 200 μL of fresh media to allow any viable cells to continue growing. The wells were then vigorously pipetted to resuspend the biofilm cells and the OD at 595 nm was measured using a plate reader (POLARstar Omega, BMG Labtech). Biofilms reaching a final OD of less than 0.1 were considered eradicated and the lowest concentration of antibiotic corresponded to the MBEC. Four replicates were completed for each concentration of compound as well as positive and negative controls.

[2] = tested on: CA-MRSA (USA300-0114) biofilms; assay: as above; format: cell-based, Staphylococcus aureus; conditions: Table 5; for MBEC CA-MRSA: USA300-0114
Procedure: as §1, §3, §4

[3] = tested on: Staphylococcus aureus MSSA (SH1000); assay: Minimum inhibitory concentration (MIC), broth microdilution; format: cell-based; conditions: read-out: MIC MSSA
Procedure: The term “minimum inhibitory concentration (MIC)” means the lowest concentration of an antimicrobial agent that will inhibit the visible growth of a microorganism after overnight incubation. MIC values against bacteria, for example, the Gram-positive Staphylococcus aureus and Enterococcus faecalis and the Gram-negative Escherichia coli and Pseudomonas aeruginosa were determined by standard methods.
With nearly three-dozen amphiphiles varying in structure and cationic nature synthesized, minimum inhibitory concentration (MIC) values against the Gram-positive Staphylococcus aureus and Enterococcus faecalis and the Gram-negative Escherichia coli and Pseudomonas aeruginosa were determined by standard methods. […] The commercially available antibacterial agent benzalkonium chloride (benzyldimethyldodecylammonium chloride, Bn,12) was tested for comparison. The broth microdilution for determining MIC values was performed as previously reported.
(§5) Different biological assays were performed. […] All cultures, with the exception of E. faecalis, were grown with shaking at 250 rpm.
(§6) Minimum inhibitory concentration (MIC) values against bacteria were measured using standard method. Compounds were serially diluted two-fold from an aqueous stock solution to yield twelve test concentrations. Overnight S. aureus, E. faecalis, E. coli, P. aeruginosa, CA-MRSA, and HA-MRSA cultures diluted to ca. 10^6 cfu/mL in Mueller-Hinton media and 100 μL were inoculated into each well of a U-bottom 96-well plate (BD Biosciences, BD351177) containing 100 μL of compound solution. Plates were incubated statically at 37° C. for 72 hours upon which time wells were evaluated visually for bacterial growth. The MIC was determined as the lowest concentration of compound resulting in no bacterial growth visible to the naked eye, based on the majority of three independent experiments. Positive and negative aqueous and media controls were conducted for each trial.

E. faecalis biofilms = assay: Minimum biofilm eradication concentration (MBEC), regrowth assay; format: cell-based, Enterococcus faecalis; conditions: Table 5
Text: as §1, §2, §3, §4

CA-MRSA (USA300-0114) = assay: Minimum inhibitory concentration (MIC), broth microdilution; format: cell-based, Staphylococcus aureus; conditions: for MIC: read-out: MIC CA-MRSA; for potency against CA-MRSA strain possessing qacA/R (in words): compared with MSSA
Procedure: as §5, §6

HA-MRSA (ATCC 33591) = assay: as above; format: cell-based, Staphylococcus aureus; conditions: for MIC: read-out: MIC HA-MRSA
Procedure: as §5, §6

[4] = tested on: red blood cells (defibrinated sheep blood); assay: Hemolysis assay (Lysis20); conditions: for Lysis20: Table 4, concentration at which less than 20% of red blood cells are lysed
Procedure: Hemolysis assays (Lysis20) were performed according to the procedure detailed in Peng, L., DeSousa, J., Su, Z., Novak, B. M., Nevzorov, A. A., Garland, E. R., and Melander, C., Inhibition of Acinetobacter baumannii biofilm formation on a methacrylate polymer containing a 2-aminoimidazole subunit, Chem. Comm. 2011, 47, 4896-4898. Defibrinated sheep blood was purchased from Hemostat Labs (DSB 100). Compounds representative of each class were serially diluted in sterile PBS from aqueous stock solutions and incubated with resuspended blood cells. The OD of the final suspensions were measured directly using plate reader. TritonX (1% by volume) served as a positive control (100% lysis marker) and sterile PBS served as a negative control (0% lysis marker).
Lysis20 indicates the concentration of compound (in μM) at which less than 20% of red blood cells are lysed.

CCCCCCCCCCCC[n+]1ccc(-c2ccc[n+](CCCCCCCCCCCC)c2)cc1.[Br-].[Br-] [PMQ-12,12]
MBEC MSSA [1]: 100 µM | MBEC CA-MRSA [2]: 150 ± 50 µM | MIC ([3]; Table 4, SH1000): 1 µM | MBEC E. faecalis (E. faecalis biofilms): 100 µM | MIC (CA-MRSA (USA300-0114); Table 4, USA300-0114): 1 µM | MIC (HA-MRSA (ATCC 33591); Table 4, ATCC 33591): 1 µM | Lysis20 [4]: 8 µM

CCCCCCCCCC[N+](C)(C)CCC[N+](C)(CC)CCC[N+](C)(C)CCCCCCCCCC [10,3,2,3,10]
MBEC MSSA [1]: 200 µM | MBEC CA-MRSA [2]: 150 ± 50 µM | MIC ([3]; Staphylococcus aureus, MSSA, Table 4, SH1000): 2 µM | MBEC E. faecalis (E. faecalis biofilms): 100 µM | MIC (CA-MRSA (USA300-0114); Staphylococcus aureus, Table 4, USA300-0114): 2 µM | MIC (HA-MRSA (ATCC 33591); Staphylococcus aureus, Table 4, ATCC 33591): 2 µM | Lysis20 [4]: 32 µM | prokaryotic selectivity (lytic profile vs MIC, in words) ([4]; among the multiQACs evaluated): highest prokaryotic selectivity

CCCCCCCCCCCC[n+]1cccc(-c2ccc[n+](CCCCCCCCCCCC)c2)c1.[Br-].[Br-] [MQ-12,12]
MBEC MSSA [1]: 100 µM | MBEC CA-MRSA [2]: 100 µM | MIC ([3]; Table 4, SH1000): 1 µM | MBEC E. faecalis (E. faecalis biofilms): 100 µM | MIC (CA-MRSA (USA300-0114); Table 4, USA300-0114): 2 µM | MIC (HA-MRSA (ATCC 33591); Table 4, ATCC 33591): 1 µM | Lysis20 [4]: 8 µM

CCCCCCCCCCCC[n+]1cccc(-c2ccc[n+](Cc3ccccc3)c2)c1.[Br-].[Br-] [MQ-12,Bn]
MBEC MSSA [1]: >200 µM | MBEC CA-MRSA [2]: >200 µM | MIC ([3]; Table 4, SH1000): 8 µM | MBEC E. faecalis (E. faecalis biofilms): >200 µM | MIC (CA-MRSA (USA300-0114); Table 4, USA300-0114): 16 µM | MIC (HA-MRSA (ATCC 33591); Table 4, ATCC 33591): 16 µM | prokaryotic selectivity (lytic profile vs MIC, in words) [4]: highest prokaryotic selectivity | Lysis20 [4]: 125 µM

CCCCCCCCCCCC[n+]1ccc(-c2cc[n+](CCCCCCCCCCCC)cc2)cc1.[Br-].[Br-] [PQ-12,12]
MBEC MSSA [1]: 200 µM | MBEC CA-MRSA [2]: 100 µM | MIC ([3]; Table 4, SH1000): 1 µM | MBEC E. faecalis (E. faecalis biofilms): 200 µM | MIC (CA-MRSA (USA300-0114); Table 4, USA300-0114): 1 µM | MIC (HA-MRSA (ATCC 33591); Table 4, ATCC 33591): 0.5 µM | Lysis20 [4]: 8 µM

CCCCCCCCCCCCCCCC[n+]1ccccc1.[Cl-] [Pyr,16, reference compound]
MBEC MSSA [1]: 50 µM | decrease in efficacy against MRSA biofilms compared to MSSA ([2]; MBEC): four-fold decrease in efficacy | MBEC CA-MRSA [2]: 200 µM | MIC ([3]; Table 4, SH1000): 0.5 µM | MBEC E. faecalis (E. faecalis biofilms): 50 µM | MIC (CA-MRSA (USA300-0114); Table 4, USA300-0114): 16 µM | potency against CA-MRSA strain possessing qacA/R (in words) (CA-MRSA (USA300-0114)): decreased potency | MIC (HA-MRSA (ATCC 33591); Table 4, ATCC 33591): 1 µM | Lysis20 [4]: 8 µM

CCCCCCCCCCCC[n+]1ccc(-c2cc[n+](Cc3ccccc3)cc2)cc1 [PQ-12,Bn]
MBEC MSSA [1]: 200 µM | MBEC CA-MRSA [2]: 200 µM | MIC ([3]; Staphylococcus aureus, MSSA): 4 µM | MBEC E. faecalis (E. faecalis biofilms): 200 µM | MIC (CA-MRSA (USA300-0114); Staphylococcus aureus): 32 µM | potency against CA-MRSA strain possessing qacA/R (in words) (CA-MRSA (USA300-0114)): elevated MICs; also recorded: decreased potency | MIC (HA-MRSA (ATCC 33591); Staphylococcus aureus): 16 µM | potency against HA-MRSA (in words) (HA-MRSA (ATCC 33591); compared with MSSA): elevated MICs | Lysis20 [4]: 125 µM | prokaryotic selectivity (lytic profile vs MIC, in words) ([4]; among the multiQACs evaluated): highest prokaryotic selectivity

Source: patent US10398142B2, “Polycationic amphiphiles as antimicrobial agents” (priority 2013, dated 2019)
